Laboratory results reported in US10006009B2, “Codon-optimized gene for mutated shrimp luciferase and method for use thereof” (JNC CORPORATION, priority 2013, dated 2018).
Entries after “also recorded” stand apart in the source; their conditions may differ.

Columns and labels:
Type in all cases: biochemical
[1] = target: T1, codon-optimized nanoKAZ domain protein (Oplophorus gracilirostris, UniProt Q9GV45, A31E/A60N/A81I/F95D/I117V/K70R/L54V/L99Q/M102K/N193R/P142E/Q151K/Q38R/Q45L/V71I/Y165I); experiment: Substrate specificity and luminescence pattern of nanoKAZ secreted into culture medium; conditions: for Relative luminescence activity integrated (1 min) / Relative maximum luminescence intensity (Imax): culture medium with secreted nanoKAZ as enzyme, coelenterazine = 1.0; for luminescence pattern: FIG. 4
T1 construct: expressed in transfected cells; host or cells: CHO-K1, HeLa or COS-1 cells transfected with pcDNA3-nanoKAZ or pcDNA3-GLsp-nanoKAZ
T1 sequence (Q9GV45 28-196 with tags or gaps with the stated changes limits assumed): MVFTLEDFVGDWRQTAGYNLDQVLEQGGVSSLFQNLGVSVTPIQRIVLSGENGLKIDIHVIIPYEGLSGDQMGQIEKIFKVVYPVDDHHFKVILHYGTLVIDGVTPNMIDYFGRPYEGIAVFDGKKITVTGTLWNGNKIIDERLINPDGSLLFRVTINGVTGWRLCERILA
Experimental: The luminescence reaction was started by addition of 5 μL of the enzyme solution for assay obtained in EXAMPLE 3 to 100 μL of 50 mM Tris-HCl (pH 7.6)-10 mM EDTA (Wako Pure Chemical Industries, Ltd.) containing 0.5 μg of coelenterazine (manufactured by JNC Corp.). The luminescence activity was measured for 60 seconds with a luminometer (manufactured by Atto Co.: AB2200). The maximum intensity of luminescence (Imax) and the luminescence activity integrated for 60 seconds were represented as relative light units (rlu). On the other hand, the luminescence activity of firefly luciferase was used as an internal standard to confirm the efficiency of transfection. Five microliters of the enzyme solution for assay obtained in EXAMPLE 3 was added to 100 μL of the enzyme assay solution (manufactured by Promega Corp.) to start the luminescence reaction. The luminescence activity was measured with a luminometer (manufactured by Atto Co.: AB2200) by integration of luminescence for 10 seconds, which was shown as relative light units (rlu). […] While the transfection efficiencies vary in depending upon cell types, the transfection efficiencies of pcDNA3-nanoKAZ and pcDNA3-GLsp-nanoKAZ are almost the same. The results obtained by measuring the luminescence activity of CHO-K1 cells, HeLa cells and COS-1 cells in culture medium and cells are shown in TABLE 4. Evidently, pcDNA3-nanoKAZ without a signal peptide sequence for secretion was secreted comparably or more efficiently than pcDNA3-GLsp-nanoKAZ.
Coelenterazine analogues used in the substrate specificity experiments were synthesized by the methods described in the respective papers. More specifically, bis-coelenterazine, furimazine and C2-coelenterazine analogue were synthesized by the methods described in Nakamura et al. (1997) Tetrahedron Lett. 38:6405-6406, Hall et al. (2012) ACS Chem. Biol. […] and Inouye et al. (2010) Anal. Biochem. 407: 247-252, respectively. Using as an enzyme solution for coelenterazine or its analogues the culture medium, into which nanoKAZ was secreted as described in EXAMPLE 4, the luminescence activity was measured. Among coelenterazine analogues, the relative maximum intensity of luminescence for h-, bis-, 3me- and 3meo-coelenterazines was at least 10-fold higher and the relative luminescence activity integrated for 1 minute of h- and bis-coelenterazines was at least 10-fold higher, than the others. These luminescence patterns are illustrated in FIG. 4.

[2] = target: T2, purified codon-optimized nanoKAZ domain protein (Oplophorus gracilirostris, UniProt Q9GV45, A31E/A60N/A81I/F95D/I117V/K70R/L54V/L99Q/M102K/N193R/P142E/Q151K/Q38R/Q45L/V71I/Y165I); experiment: Substrate specificity of purified nanoKAZ; conditions: purified nanoKAZ 0.03 μg, 1 μg substrate, coelenterazine = 1.0
T2 construct: histidine tag (6 His) (N, cleaved yes); ZZ domain (N, cleaved yes); made in house; host or cells: Escherichia coli BL21
T2 sequence (Q9GV45 other isoform, or with tags, fused parts or gaps with the stated changes): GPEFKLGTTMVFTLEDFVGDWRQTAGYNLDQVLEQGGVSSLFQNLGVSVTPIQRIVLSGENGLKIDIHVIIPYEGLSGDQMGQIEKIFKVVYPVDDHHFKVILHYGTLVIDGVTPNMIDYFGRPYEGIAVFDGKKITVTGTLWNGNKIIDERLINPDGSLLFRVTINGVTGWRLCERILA
Experimental: The luminescence reaction was started by addition of 5 μl (0.03 μg) of the purified enzyme solution obtained in EXAMPLE 7 to 100 μl of 50 mM Tris-HCl (pH 7.6)-10 mM EDTA (Wako Pure Chemical Industries, Ltd.) containing 1 μg of coelenterazine (manufactured by JNC) or its analogues. The luminescence activity was measured with a luminometer (manufactured by Atto Co.: AB2200) for 60 seconds. The maximum intensity of luminescence (Imax) and the level integrated for 60 seconds were represented as relative light units (rlu).
The luminescence activity of the purified codon-optimized nanoKAZ domain was measured in accordance with the method described in EXAMPLE 8. […] The results obtained using the purified codon-optimized nanoKAZ as the enzyme solution are in good agreement with the results found by using the culture cell solution as the enzyme solution.

purified nanoKAZ = target: T3, purified nanoKAZ (Oplophorus gracilirostris, UniProt Q9GV45, A31E/A60N/A81I/F95D/I117V/K70R/L54V/L99Q/M102K/N193R/P142E/Q151K/Q38R/Q45L/V71I/Y165I); experiment: Emission spectra by purified nanoKAZ using coelenterazine analogues; conditions: purified nanoKAZ 3 μg, substrate 5 μg, 22-25° C.
T3 construct: histidine tag (6 His) (N, cleaved yes); ZZ domain (N, cleaved yes); made in house; host or cells: Escherichia coli BL21
T3 sequence (Q9GV45 other isoform, or with tags, fused parts or gaps with the stated changes): as above
Experimental: The luminescence reaction was started by addition of a solution of substrate coelenterazine (5 μg/5 μL) in ethanol to a solution of nanoKAZ (3 μg) in 30 mM Tris-HCl (pH 7.6) containing 500 μl of 10 mM EDTA. The luminescence spectra were measured in a quartz cell with an optical path length of 10 mm, with a fluorescence spectrophotometer (manufactured by JASCO Corp., FP-6500) with the excitation light source turned off to correct for the spectra. The measurement conditions used were as follows: band width: 20 nm, response: 0.5 second, scan speed: 2000 nm/min at 22-25° C. The maximum intensity of luminescence (λmax, nm) and half bandwidth (nm) were determined from the luminescence spectra measured, which are summarized in TABLE 8.

Row | Compound | Relative luminescence activity integrated (1 min) [1] | Relative maximum luminescence intensity (Imax) [1] | Maximum luminescence intensity (Imax) [2] | Relative luminescence activity integrated (1 min) [2] | Half bandwidth FWHM (purified nanoKAZ) | Maximum wavelength λmax (purified nanoKAZ) | luminescence pattern [1] | activity relative to furimazine ([1]; higher than that of furimazine)
1 | Oc1ccc(-c2cn3c(O)c(Cc4ccccc4)nc3c(Cc3ccccc3)n2)cc1 [h-Coelenterazine] | 11.1 | 17.1 | 19.7 | 12.5 | 71 nm | 455 nm |  | 
2 | Cc1cccc(Cc2nc3c(Cc4ccccc4)[nH]c(-c4ccc(O)cc4)cn-3c2=O)c1 [3me-Coelenterazine] | 7.9 | 11.5 | 10.3 | 4.2 | 73 nm | 458 nm |  | 
3 | COc1ccc(Cc2nc3c(Cc4ccccc4)[nH]c(-c4ccc(O)cc4)cn-3c2=O)cc1 [meo-Coelenterazine] | 6.3 | 8.9 | 7.7 | 3.4 | 73 nm | 458 nm |  | 
4 | i-Coelenterazine | 2.0 | 3.3 | 2.9 | 0.8 | 73 nm | 457 nm |  | 
5 | Oc1ccc(Cc2nc3c(Cc4ccccc4)nc(-c4ccc(O)cc4)cn3c2O)cc1 [Coelenterazine (CTZ), Coelenterazine] | 1.0 | 1.0 | 1.0 | 1.0 | 73 nm | 457 nm |  | 
6 | COc1cccc(Cc2nc3c(Cc4ccccc4)[nH]c(-c4ccc(O)cc4)cn-3c2=O)c1 [3meo-Coelenterazine] | 8.2 | 11.6 | 11.1 | 6.6 | 71 nm | 458 nm |  | 
7 | O=c1c(Cc2cccc(O)c2)nc2c(Cc3ccccc3)[nH]c(-c3ccc(O)cc3)cn1-2 [3iso-Coelenterazine] | 1.4 | 1.5 | 1.1 | 0.9 | 75 nm | 460 nm | did not show the rapid-decay luminescence patterns | 
8 | O=c1c(Cc2ccco2)nc2c(Cc3ccccc3)[nH]c(-c3ccccc3)cn1-2 [Furimazine] | 5.3 | 4.8 | 6.8 | 5.5 | 73 nm | 452 nm | did not show the rapid-decay luminescence patterns | 
9 | Cc1ccc(Cc2nc3c(Cc4ccccc4)[nH]c(-c4ccc(O)cc4)cn-3c2=O)cc1 [me-Coelenterazine] | 3.0 | 5.2 | 4.2 | 1.3 | 75 nm | 460 nm |  | 
10 | et-Coelenterazine | 2.8 | 4.4 | 2.4 | 0.5 | 75 nm | 458 nm |  | 
11 | n-Coelenterazine | 3.3 | 4.9 | 4.1 | 1.2 | 71 nm | 454 nm |  | 
12 | O=c1c(Cc2ccc(C(F)(F)F)cc2)nc2c(Cc3ccccc3)[nH]c(-c3ccc(O)cc3)cn1-2 [cf3-Coelenterazine] | 2.4 | 5.2 | 4.7 | 1.4 | 71 nm | 454 nm |  | 
13 | αmeh-Coelenterazine | 0.1 | 0.1 | 0.1 | 0.1 | 73 nm | 462 nm |  | 
14 | bis-Coelenterazine | 11.5 | 10.8 | 13.5 | 10.1 | 73 nm | 453 nm | did not show the rapid-decay luminescence patterns; also recorded: continuous emission without decay of luminescence | at least 2 fold
